{"source": "patent US9624161B2", "about": "(priority 2009, dated 2017)", "key": {"[1]": {"molecular_target": "T1, PPAR-α (Homo sapiens, UniProt Q07869)", "T1 construct": "expressed in transfected cells", "T1 sequence (Q07869 whole entry, canonical isoform)": "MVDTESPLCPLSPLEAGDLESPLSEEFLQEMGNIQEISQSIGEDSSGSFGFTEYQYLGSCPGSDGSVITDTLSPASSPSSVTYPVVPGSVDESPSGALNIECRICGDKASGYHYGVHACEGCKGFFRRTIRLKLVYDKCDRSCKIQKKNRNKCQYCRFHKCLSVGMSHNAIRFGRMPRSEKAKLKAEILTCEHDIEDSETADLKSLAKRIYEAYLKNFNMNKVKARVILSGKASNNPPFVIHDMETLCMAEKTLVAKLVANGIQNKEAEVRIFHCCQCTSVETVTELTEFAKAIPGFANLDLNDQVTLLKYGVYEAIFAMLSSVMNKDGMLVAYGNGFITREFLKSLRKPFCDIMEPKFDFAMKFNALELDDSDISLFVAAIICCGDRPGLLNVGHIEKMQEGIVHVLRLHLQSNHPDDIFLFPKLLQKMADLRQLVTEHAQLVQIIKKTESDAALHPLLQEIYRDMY", "assay": "Nuclear receptor cross-reactivity transcriptional activation assay", "type": "cell-based", "settings": "agonist and antagonist modes", "source_text": "(§1) Compound IV was screened for cross-reactivity against rat isoforms of glucocorticoid receptor (GR), mineralocorticoids receptor (MR), progesterone receptor (PR), androgen receptor (AR) and human isoforms of farnesoid X receptor (FXR), liver X receptor (LXR), peroxisome proliferator-activated receptors (PPAR-α and PPAR-γ), and retinoid X receptor (RXR-α) in both agonist and antagonist modes in transcriptional activation assays."}, "[2]": {"molecular_target": "T2, PPAR-γ (Homo sapiens, UniProt P37231)", "T2 construct": "expressed in transfected cells", "T2 sequence (P37231 whole entry)": "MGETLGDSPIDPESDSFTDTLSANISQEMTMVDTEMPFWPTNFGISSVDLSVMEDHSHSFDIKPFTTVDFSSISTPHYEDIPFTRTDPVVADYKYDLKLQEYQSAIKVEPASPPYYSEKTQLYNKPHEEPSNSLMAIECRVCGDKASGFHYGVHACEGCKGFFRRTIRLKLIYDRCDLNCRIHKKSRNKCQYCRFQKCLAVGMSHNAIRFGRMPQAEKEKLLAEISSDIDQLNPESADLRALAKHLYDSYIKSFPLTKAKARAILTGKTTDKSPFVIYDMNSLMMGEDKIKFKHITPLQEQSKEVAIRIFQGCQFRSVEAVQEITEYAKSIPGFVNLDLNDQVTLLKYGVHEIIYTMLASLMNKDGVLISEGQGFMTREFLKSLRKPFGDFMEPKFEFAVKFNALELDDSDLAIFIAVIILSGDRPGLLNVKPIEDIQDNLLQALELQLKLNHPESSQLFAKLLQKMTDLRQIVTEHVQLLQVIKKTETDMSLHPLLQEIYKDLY", "assay": "Nuclear receptor cross-reactivity transcriptional activation assay", "type": "cell-based", "settings": "agonist and antagonist modes", "source_text": "as §1"}, "[3]": {"molecular_target": "T3, androgen receptor (AR) (Rattus norvegicus, UniProt P15207)", "T3 construct": "expressed in transfected cells", "T3 sequence (P15207 whole entry S389L)": "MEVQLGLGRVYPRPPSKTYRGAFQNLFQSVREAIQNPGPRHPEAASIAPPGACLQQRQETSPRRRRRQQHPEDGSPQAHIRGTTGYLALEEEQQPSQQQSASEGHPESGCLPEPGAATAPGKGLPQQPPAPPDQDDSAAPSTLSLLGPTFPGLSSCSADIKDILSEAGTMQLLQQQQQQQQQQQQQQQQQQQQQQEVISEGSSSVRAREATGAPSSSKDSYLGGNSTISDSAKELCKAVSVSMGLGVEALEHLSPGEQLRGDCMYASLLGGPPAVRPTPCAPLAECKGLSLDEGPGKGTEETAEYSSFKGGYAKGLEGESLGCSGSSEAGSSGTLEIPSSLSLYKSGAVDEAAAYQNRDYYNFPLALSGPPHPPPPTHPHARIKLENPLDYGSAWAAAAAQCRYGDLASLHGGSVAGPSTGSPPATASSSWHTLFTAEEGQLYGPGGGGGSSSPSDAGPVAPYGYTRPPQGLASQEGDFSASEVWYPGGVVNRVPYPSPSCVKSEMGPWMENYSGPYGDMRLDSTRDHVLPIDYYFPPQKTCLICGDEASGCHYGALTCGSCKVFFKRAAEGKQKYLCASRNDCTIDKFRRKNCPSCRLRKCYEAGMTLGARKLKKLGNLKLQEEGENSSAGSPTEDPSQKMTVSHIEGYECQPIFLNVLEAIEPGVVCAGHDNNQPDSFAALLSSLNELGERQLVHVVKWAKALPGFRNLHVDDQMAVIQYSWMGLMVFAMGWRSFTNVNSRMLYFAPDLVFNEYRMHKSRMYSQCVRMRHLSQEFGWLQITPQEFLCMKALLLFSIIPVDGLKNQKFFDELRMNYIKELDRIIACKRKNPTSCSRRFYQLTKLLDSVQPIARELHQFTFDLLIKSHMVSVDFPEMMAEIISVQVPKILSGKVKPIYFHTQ", "assay": "Nuclear receptor cross-reactivity transcriptional activation assay", "type": "cell-based", "source_text": "as §1"}, "[4]": {"molecular_target": "T4, farnesoid X receptor (FXR) (Homo sapiens, UniProt Q96RI1)", "T4 construct": "expressed in transfected cells", "T4 sequence (Q96RI1 whole entry)": "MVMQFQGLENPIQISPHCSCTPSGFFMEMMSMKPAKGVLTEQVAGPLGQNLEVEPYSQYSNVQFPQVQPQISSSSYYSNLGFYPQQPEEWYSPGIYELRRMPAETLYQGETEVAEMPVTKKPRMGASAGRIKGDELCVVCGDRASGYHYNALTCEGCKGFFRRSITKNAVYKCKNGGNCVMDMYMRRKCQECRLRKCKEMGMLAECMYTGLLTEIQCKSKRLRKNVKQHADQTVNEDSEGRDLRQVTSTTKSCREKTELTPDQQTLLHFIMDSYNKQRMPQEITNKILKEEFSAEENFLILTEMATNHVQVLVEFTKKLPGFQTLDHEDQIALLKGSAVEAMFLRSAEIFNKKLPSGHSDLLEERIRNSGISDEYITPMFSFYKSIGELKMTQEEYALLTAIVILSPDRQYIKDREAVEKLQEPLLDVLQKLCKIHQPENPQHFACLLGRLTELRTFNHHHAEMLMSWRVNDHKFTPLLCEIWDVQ", "assay": "Nuclear receptor cross-reactivity transcriptional activation assay", "type": "cell-based", "settings": "agonist and antagonist modes", "source_text": "as §1"}, "[5]": {"molecular_target": "T5, glucocorticoid receptor (GR) (Rattus norvegicus, UniProt P06536)", "T5 construct": "expressed in transfected cells", "T5 sequence (P06536 1-795)": "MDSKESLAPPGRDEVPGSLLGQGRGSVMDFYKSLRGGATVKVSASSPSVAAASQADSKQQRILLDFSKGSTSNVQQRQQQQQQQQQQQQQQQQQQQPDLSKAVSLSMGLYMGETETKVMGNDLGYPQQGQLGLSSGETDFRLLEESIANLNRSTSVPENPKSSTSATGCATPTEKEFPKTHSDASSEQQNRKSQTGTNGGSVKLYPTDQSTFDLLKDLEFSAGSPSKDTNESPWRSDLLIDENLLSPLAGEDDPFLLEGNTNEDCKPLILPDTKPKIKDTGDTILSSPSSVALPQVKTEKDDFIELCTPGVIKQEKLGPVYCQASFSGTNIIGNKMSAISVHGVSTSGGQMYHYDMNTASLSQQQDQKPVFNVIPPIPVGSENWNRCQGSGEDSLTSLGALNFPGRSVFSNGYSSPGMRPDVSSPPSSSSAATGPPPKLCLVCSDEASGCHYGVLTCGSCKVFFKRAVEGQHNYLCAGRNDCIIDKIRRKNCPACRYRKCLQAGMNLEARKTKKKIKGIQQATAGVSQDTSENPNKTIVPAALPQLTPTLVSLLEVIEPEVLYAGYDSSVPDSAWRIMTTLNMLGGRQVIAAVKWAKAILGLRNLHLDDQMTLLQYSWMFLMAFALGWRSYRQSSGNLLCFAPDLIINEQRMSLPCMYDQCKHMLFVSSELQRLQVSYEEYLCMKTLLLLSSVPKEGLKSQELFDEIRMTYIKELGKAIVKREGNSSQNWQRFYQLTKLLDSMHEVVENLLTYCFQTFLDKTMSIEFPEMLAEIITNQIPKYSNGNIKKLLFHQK", "assay": "Nuclear receptor cross-reactivity transcriptional activation assay", "type": "cell-based", "source_text": "as §1"}, "[6]": {"molecular_target": "T6, mineralocorticoids receptor (MR) (Rattus norvegicus, UniProt P22199)", "T6 construct": "expressed in transfected cells", "T6 sequence (P22199 whole entry)": "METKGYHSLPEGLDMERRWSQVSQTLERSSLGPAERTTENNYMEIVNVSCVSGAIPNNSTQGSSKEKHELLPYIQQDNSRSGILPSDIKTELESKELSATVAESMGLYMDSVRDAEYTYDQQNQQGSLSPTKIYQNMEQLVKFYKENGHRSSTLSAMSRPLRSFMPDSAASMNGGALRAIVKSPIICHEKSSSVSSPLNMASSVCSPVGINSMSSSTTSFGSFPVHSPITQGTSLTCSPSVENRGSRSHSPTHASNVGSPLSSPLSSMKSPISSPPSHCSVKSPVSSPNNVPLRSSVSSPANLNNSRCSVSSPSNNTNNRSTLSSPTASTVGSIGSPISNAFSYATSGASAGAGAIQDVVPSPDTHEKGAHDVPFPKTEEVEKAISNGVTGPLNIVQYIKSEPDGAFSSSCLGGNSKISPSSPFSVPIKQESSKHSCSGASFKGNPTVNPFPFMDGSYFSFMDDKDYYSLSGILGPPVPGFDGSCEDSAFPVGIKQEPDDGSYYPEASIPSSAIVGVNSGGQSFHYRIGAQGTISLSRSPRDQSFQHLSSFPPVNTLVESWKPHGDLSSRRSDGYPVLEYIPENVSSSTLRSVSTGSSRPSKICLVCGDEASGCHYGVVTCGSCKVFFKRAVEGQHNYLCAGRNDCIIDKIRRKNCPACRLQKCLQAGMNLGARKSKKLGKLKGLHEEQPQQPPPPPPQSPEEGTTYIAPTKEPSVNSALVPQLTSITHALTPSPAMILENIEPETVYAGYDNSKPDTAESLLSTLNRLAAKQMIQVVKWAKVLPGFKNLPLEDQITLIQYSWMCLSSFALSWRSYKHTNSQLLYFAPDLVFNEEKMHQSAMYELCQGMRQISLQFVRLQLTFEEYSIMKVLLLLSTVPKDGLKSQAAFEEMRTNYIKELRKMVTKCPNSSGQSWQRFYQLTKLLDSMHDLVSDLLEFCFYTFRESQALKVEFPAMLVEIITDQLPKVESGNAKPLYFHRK", "assay": "Nuclear receptor cross-reactivity transcriptional activation assay", "type": "cell-based", "settings": "agonist and antagonist modes", "source_text": "as §1"}, "[7]": {"molecular_target": "T7, progesterone receptor (PR) (Rattus norvegicus, UniProt Q63449)", "T7 construct": "expressed in transfected cells", "T7 sequence (Q63449 whole entry)": "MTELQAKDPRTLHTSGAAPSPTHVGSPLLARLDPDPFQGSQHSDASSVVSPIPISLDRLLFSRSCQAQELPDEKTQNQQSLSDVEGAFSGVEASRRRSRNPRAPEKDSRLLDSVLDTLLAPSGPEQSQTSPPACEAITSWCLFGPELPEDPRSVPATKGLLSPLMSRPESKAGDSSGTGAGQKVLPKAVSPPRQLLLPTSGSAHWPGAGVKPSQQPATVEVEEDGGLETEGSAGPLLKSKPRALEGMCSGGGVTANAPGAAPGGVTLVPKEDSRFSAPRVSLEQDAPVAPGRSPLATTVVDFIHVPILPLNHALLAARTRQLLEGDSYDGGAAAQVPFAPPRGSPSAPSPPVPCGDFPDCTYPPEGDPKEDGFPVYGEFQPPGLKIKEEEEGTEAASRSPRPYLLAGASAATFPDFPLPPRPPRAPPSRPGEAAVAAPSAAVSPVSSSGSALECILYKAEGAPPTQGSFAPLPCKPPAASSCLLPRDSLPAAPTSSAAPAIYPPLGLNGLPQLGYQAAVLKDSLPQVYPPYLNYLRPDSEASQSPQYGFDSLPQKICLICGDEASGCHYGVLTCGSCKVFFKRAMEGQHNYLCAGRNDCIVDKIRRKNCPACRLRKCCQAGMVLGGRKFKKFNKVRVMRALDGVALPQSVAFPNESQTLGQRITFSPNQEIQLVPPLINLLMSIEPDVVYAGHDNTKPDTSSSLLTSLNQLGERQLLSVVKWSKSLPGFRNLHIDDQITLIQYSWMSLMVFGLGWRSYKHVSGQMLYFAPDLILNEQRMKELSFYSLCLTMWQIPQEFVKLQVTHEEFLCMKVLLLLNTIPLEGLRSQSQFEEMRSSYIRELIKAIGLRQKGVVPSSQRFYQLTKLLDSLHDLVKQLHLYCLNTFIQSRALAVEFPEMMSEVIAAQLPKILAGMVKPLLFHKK", "assay": "Nuclear receptor cross-reactivity transcriptional activation assay", "type": "cell-based", "settings": "agonist and antagonist modes", "source_text": "as §1"}, "[8]": {"molecular_target": "T8, retinoid X receptor (RXR-α) (Homo sapiens, UniProt P19793)", "T8 construct": "expressed in transfected cells", "T8 sequence (P19793 whole entry)": "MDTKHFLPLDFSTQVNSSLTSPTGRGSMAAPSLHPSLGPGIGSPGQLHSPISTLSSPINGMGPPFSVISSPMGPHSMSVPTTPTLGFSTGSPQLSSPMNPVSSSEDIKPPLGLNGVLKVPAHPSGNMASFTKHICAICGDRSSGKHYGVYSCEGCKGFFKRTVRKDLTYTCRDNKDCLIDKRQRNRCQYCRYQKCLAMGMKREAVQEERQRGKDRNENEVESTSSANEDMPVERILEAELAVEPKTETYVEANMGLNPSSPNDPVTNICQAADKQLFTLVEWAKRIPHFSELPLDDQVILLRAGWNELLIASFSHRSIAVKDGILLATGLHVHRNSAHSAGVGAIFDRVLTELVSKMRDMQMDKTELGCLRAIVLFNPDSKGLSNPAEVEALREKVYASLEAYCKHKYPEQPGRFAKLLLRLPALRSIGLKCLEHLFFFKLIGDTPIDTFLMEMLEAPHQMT", "assay": "Nuclear receptor cross-reactivity transcriptional activation assay", "type": "cell-based", "settings": "agonist and antagonist modes", "source_text": "as §1"}, "[9]": {"molecular_target": "T9, Human 17β-HSD5 (Homo sapiens, UniProt P42330)", "T9 construct": "GST (inferred from pGEX 4t1 vector; own knowledge) (N); made in house", "T9 sequence (P42330 whole entry)": "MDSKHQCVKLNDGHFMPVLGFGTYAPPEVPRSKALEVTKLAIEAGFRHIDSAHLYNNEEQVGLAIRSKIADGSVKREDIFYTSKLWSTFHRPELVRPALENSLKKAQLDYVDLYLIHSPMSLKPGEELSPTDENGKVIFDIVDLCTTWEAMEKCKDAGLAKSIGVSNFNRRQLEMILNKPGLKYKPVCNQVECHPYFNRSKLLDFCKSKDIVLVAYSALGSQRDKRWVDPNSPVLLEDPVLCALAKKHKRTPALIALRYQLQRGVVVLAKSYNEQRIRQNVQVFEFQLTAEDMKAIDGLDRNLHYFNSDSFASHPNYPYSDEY", "assay": "17β-HSD5 enzyme activity (14C androstenedione to testosterone, TLC)", "type": "biochemical", "settings": "purified protein, NADPH (FIG. 3)"}, "[10]": {"system": "intact and ORX rats", "assay": "Prostate size in intact and ORX rats, Compound IV versus DES", "type": "in vivo, rat", "settings": "rats (FIG. 11)"}, "[11]": {"system": "sexually mature male cynomolgus monkeys", "assay": "39-week oral pharmacology and toxicology study in male cynomolgus monkeys (13-week interim)", "type": "in vivo, cynomolgus monkey"}, "[12]": {"system": "male or female dogs", "assay": "Single and repeated oral dose toxicity in dogs (up to 28 days)", "type": "in vivo, dog", "source_text": "Compound IV was well-tolerated by rats and dogs after single and repeated oral administration (up to 28 days)."}, "[13]": {"system": "men with castration resistant prostate cancer (CRPC)", "assay": "Study 3: Compound IV 2000 mg daily in men with castration resistant prostate cancer maintained on ADT", "type": "in vivo, human", "settings": "for Percentage of treated patients already on ADT (ITT population) below the free T cutoff of 0.5 pg/ml: Study 3, CRPC", "protocol": "Men with CRPC (n=9) received 2000 mg Compound IV daily. The primary endpoint of the study was the proportion of subjects with a greater than or equal to 50% reduction in prostate specific antigen (PSA) from Day 1. Secondary endpoints included serum free T and SHBG which together with PSA were assessed at days 1, 15, 30, 60 and 90. Serum concentrations of total T, free T, SHBG and PSA were determined at baseline and during treatment.\nA study (Study 3) was conducted to assess the effects of Compound IV on serum PSA progression in men with castration resistant prostate cancer who have been effectively treated with ADT and at the time of enrollment into this study have shown serum PSA progression. This study consisted of one dose arm with 9 subjects.\nThe subjects were 12 male subjects over age 18 years with castration resistant prostate cancer, who were being treated with androgen deprivation therapy (chemical or surgical castration) for at least 6 months, that have serum PSA >2 ng/mL or […] a 25% increase above the nadir after the initiation of androgen deprivation therapy (ADT) at study enrollment. The subjects were maintained on androgen deprivation therapy throughout the study.\nThe dose selected for the study was 2000 mg Compound IV. Four Compound IV tablets, 500 mg (2000 mg dose) were orally administered daily. […] Subjects received 2000 mg of Compound IV daily by mouth until study termination. Dosing was to be continued until their serum PSA had increased at least 25% and 2 ng/mL from the nadir at two successive sample times (approximately 30 days apart) after initiation of treatment with Compound IV. The prostate cancer working group (PCWG) definition of PSA progression was used (serum PSA has increased at least 25% and 2 ng/mL above the nadir after initiation of treatment with Compound IV on two successive sample times).\nAssessments of serum PSA concentration were made at baseline and on Days 15, 30, and 60 (only 1 patient made it this far before study was terminated).\nThe proportion of subjects with a 50% decline from baseline in serum PSA (confirmed by a second PSA assessment at least one week later)."}}, "note": "Values joined by “and” are separate entries in the source; they are usually repeats but may differ in a detail not shown here. Identical values can stand only once. “Also recorded” adds a separate entry of the source.", "data": [{"smiles": "O=C(c1ccc(O)c(F)c1)N(c1ccc(O)cc1)c1ccc(F)cc1", "note": "[Compound IV, 3-fluoro-N-(4-fluorophenyl)-4-hydroxy-N-(4-hydroxyphenyl)benzamide]", "values": [{"measurement": "Agonist or antagonist activity at PPAR-α", "setting": "[1]", "value": "did not display any agonist or antagonist activity"}, {"measurement": "Agonist or antagonist activity at PPAR-γ", "setting": "[2]", "value": "did not display any agonist or antagonist activity"}, {"measurement": "Cross-reaction with androgen receptor (AR)", "setting": "[3]; FIG. 12B", "value": "does not; also recorded: did not"}, {"measurement": "Agonist or antagonist activity at AR", "setting": "[3]; agonist and antagonist modes", "value": "did not display any agonist or antagonist activity"}, {"measurement": "Agonist or antagonist activity at FXR", "setting": "[4]", "value": "did not display any agonist or antagonist activity"}, {"measurement": "Cross-reaction with glucocorticoid receptor (GR)", "setting": "[5]; FIG. 12A", "value": "does not; also recorded: did not"}, {"measurement": "Agonist or antagonist activity at GR", "setting": "[5]; agonist and antagonist modes", "value": "did not display any agonist or antagonist activity"}, {"measurement": "Agonist or antagonist activity at MR", "setting": "[6]", "value": "did not display any agonist or antagonist activity"}, {"measurement": "Agonist or antagonist activity at PR", "setting": "[7]", "value": "did not display any agonist or antagonist activity"}, {"measurement": "Agonist or antagonist activity at RXR-α", "setting": "[8]", "value": "did not display any agonist or antagonist activity"}, {"measurement": "Effect on 17β-HSD5 enzyme activity", "setting": "[9]", "value": "partial inhibitory effect"}, {"measurement": "Reduction of prostate size", "setting": "[10]", "value": "as effective as DES"}, {"measurement": "Monkeys with testosterone below the limit of quantification", "setting": "[11]; 100 mg/kg/day oral, after 90 days, Group 4", "value": "6 of 10"}, {"measurement": "Initial testosterone flare", "setting": "[11]; any Compound IV dose, up to 100 mg/kg/day", "value": "not observed"}, {"measurement": "Tolerability after single and repeated oral administration", "setting": "[12]", "value": "well-tolerated"}, {"measurement": "Free T reductions and PSA decreases from baseline", "setting": "[13]; 15 days, men maintained on ADT with LHRH agonists alone", "value": "in all of the men"}, {"measurement": "Effect on serum total T levels", "setting": "[13]; CRPC patients on ADT", "value": "did not further reduce"}, {"measurement": "Reduction in % FreeT", "setting": "[13]; Day 15", "value": "greater than 50%"}, {"measurement": "Percentage of treated patients already on ADT (ITT population) below the free T cutoff of 0.5 pg/ml", "setting": "[13]; 15 days on therapy", "value": 85.7, "unit": "%"}, {"measurement": "Percentage of treated patients already on ADT (ITT population) below the free T cutoff of 0.5 pg/ml", "setting": "[13]; 30 days on therapy", "value": 66.7, "unit": "%"}, {"measurement": "Percentage of treated patients already on ADT (ITT population) below the free T cutoff of 0.5 pg/ml", "setting": "[13]; 60 days on therapy", "value": 100, "unit": "%"}, {"measurement": "Patients with greater than 50% reduction in PSA", "setting": "[13]; after two weeks", "value": "3 of 7"}, {"measurement": "Men that reached free T below 0.5 pg/mL", "setting": "[13]; day 15", "value": 85.7, "unit": "%"}, {"measurement": "Men that reached free T below 0.5 pg/mL", "setting": "[13]; day 30", "value": 66.7, "unit": "%"}, {"measurement": "Men that reached free T below 0.5 pg/mL", "setting": "[13]; day 60", "value": 100, "unit": "%"}, {"measurement": "Subjects with a reduction in serum PSA from baseline to Day 15", "setting": "[13]; seven evaluable subjects", "value": "All seven"}, {"measurement": "Subjects with >50% reduction in serum PSA", "setting": "[13]; subjects with at least 30 days of exposure", "value": "all three and 2 of 3"}]}]}
